Assays:
[1] = molecular target: Prostaglandin G/H synthase 1 (Homo sapiens, UniProt P23219); assay: biochemical; assay type: tissue-based, Platelet; settings: platelet;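 note: inhibition of COX-1 enzyme activity, with arachidonic acid supplied as substrate; in other assays of this panel Not Active means under 50% inhibition at 10 µM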
[2] = molecular target: Receptor tyrosine-protein kinase erbB-2 (Homo sapiens, UniProt P04626); assay: biochemical; assay type: cell-based, Insect cells; settings: insect cells;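 note: inhibition of HER2 kinase enzyme activity, measured with Poly(Glu:Tyr) as the phosphorylation substrate; in other assays of this panel Not Active means under 50% inhibition at 10 µM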
[3] = molecular target: Sigma non-opioid intracellular receptor 1 (Homo sapiens, UniProt Q99720); assay: DRUGMATRIX: Sigma1 radioligand binding (ligand: [3H] Haloperidol); assay type: cell membranes, Jurkat, Membrane; settings: jurkat; Not Active = under 50% inhibition at 10 µM
Sequence of Sigma non-opioid intracellular receptor 1 (Q99720 whole entry): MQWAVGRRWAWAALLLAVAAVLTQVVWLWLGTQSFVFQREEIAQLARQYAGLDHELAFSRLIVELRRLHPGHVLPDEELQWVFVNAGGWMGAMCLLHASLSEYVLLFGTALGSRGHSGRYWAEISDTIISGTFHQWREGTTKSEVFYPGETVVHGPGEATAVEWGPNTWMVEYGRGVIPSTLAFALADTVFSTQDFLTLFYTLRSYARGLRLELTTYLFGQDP

[4] = molecular target: Acetylcholinesterase (Homo sapiens, UniProt P22303); assay: DRUGMATRIX: Acetylcholinesterase enzyme inhibition (substrate: acetylthiocholine); assay type: cell-based, HEK293; settings: hek293; Not Active = under 50% inhibition at 10 µM
Sequence of Acetylcholinesterase (P22303 whole entry): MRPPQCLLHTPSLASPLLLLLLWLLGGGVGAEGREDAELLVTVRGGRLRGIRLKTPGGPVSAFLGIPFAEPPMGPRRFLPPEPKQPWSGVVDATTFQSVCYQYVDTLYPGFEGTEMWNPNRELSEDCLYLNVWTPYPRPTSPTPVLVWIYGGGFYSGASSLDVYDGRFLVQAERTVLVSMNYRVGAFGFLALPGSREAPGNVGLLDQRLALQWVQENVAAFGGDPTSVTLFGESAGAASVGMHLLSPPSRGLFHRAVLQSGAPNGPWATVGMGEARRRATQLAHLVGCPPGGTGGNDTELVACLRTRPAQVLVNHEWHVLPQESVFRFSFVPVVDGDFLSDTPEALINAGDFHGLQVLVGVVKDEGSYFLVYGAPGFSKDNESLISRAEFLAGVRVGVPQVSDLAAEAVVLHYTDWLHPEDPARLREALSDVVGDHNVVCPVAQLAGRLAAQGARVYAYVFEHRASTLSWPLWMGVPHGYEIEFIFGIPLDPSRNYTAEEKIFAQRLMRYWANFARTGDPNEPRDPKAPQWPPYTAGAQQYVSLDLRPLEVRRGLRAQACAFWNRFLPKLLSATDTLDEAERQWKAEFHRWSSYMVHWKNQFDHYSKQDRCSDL

[5] = molecular target: T1, Alpha-2A adrenergic receptor (Homo sapiens, UniProt P08913); assay type: cell membranes, Sf9, Membrane; settings: sf9; note: in other assays of this panel Not Active means under 50% inhibition at 10 µM
T1 sequence (P08913 whole entry): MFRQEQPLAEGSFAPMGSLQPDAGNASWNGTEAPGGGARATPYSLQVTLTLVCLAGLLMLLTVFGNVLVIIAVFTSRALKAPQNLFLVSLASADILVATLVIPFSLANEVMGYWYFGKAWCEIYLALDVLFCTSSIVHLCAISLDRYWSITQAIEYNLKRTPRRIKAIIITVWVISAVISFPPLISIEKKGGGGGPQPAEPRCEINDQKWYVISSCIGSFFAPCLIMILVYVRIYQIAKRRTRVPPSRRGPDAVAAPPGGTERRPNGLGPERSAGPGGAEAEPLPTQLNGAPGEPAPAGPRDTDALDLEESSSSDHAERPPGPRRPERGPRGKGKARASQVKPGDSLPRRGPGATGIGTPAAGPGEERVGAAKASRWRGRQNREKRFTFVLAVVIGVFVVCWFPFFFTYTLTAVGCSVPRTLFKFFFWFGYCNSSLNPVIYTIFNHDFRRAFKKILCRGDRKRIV

[6] = molecular target: T2, Cathepsin G (Homo sapiens, UniProt P08311); assay type: tissue-based; settings: neutrophil;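 note: inhibition of Cathepsin G enzyme activity, tested on an AMC-conjugated peptide substrate; in other assays of this panel Not Active means under 50% inhibition at 10 µM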
T2 sequence (P08311 whole entry): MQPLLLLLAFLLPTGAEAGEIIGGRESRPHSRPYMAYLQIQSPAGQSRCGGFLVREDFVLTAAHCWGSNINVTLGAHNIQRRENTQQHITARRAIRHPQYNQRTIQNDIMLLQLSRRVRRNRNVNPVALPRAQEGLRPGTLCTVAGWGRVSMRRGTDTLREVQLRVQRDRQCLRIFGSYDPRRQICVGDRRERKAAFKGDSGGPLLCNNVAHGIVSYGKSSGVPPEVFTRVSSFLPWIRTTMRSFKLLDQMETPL

Sequence of Prostaglandin G/H synthase 1 (P23219 whole entry): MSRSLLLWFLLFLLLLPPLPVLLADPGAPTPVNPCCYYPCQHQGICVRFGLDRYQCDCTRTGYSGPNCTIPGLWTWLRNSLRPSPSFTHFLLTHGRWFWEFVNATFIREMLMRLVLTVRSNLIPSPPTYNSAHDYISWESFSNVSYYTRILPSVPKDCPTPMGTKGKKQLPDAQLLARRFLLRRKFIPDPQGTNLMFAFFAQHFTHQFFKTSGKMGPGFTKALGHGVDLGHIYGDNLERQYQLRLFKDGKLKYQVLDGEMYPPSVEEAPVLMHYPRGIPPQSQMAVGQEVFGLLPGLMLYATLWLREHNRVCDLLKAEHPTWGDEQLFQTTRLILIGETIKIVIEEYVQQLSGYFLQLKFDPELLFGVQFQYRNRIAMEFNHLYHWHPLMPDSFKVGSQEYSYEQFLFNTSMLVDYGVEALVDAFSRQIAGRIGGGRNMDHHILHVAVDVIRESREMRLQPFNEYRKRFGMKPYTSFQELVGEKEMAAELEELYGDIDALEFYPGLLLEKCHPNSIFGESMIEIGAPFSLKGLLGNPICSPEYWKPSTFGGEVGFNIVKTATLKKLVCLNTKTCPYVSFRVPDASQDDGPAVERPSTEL

STANNOUS FLUORIDE
Not Active: IC50 [1] | Ki [1] | IC50 [2] | Ki [2] | IC50 [3] | Ki [3] | IC50 [4] | Ki [4] | IC50 [5] | Ki [5] | IC50 [6] | Ki [6]

C[C@]12CC[C@H]3[C@@H](CCC4=CC(=O)CC[C@@]43C)[C@@H]1CC[C@@H]2O [TESTOSTERONE]
Not Active: IC50 [1] | IC50 [2] | IC50 [3] | IC50 [4] | IC50 [5] | IC50 [6]

CN1C2CCCC1CC(NC(=O)c1nn(C)c3ccccc13)C2 (stereo not given) [GRANISETRON]
Not Active: IC50 [1] | IC50 [2] | IC50 [3] | IC50 [4] | IC50 [5] | IC50 [6]

COc1ccc(/C=C/C(=O)Nc2ccccc2C(=O)O)cc1OC
Not Active: IC50 [1] | IC50 [2] | IC50 [3] | IC50 [4] | IC50 [5] | IC50 [6]

— ChEMBL document CHEMBL1909046, “DrugMatrix in vitro pharmacology data”
